Measurements taken from US10674729B2, “Synergistic combination of 3-IODO-2-propynyl-butylcarbamate and diamine” (priority 2016, dated 2020).

How the values were obtained:
Assay in all cases: MIC and synergy testing in tryptic soy broth (turbidity reading)
Assay type in all cases: cell-based
[1] = system: Pseudomonas aeruginosa (DSMZ#939); conditions: 48 hours, 30° C., TSB
Procedure: (§1) The synergism of the biocides combination of the present invention was determined using the method described by Kull, F. C., et. al in Applied Microbiology 9:538-541 (1961). The formula to calculate the synergy index (SI) is Qa/QA+Qb/QB=SI Where • QA=concentration of compound A in ppm, acting alone produced an end point (growth/no growth) • Qa=concentration of compound A in ppm, in the mixture, which produced an end point (growth/no growth) • QB=concentration of compound B in ppm, acting alone produced an end point (growth/no growth) • Qb=concentration of compound B in ppm, in the mixture, which produced an end point (growth/no growth) […]
(§2) • 1. The test was executed with a Hamilton MLStarPlus robot using automated turbidity reading with BioTek Synergy H4 plate reader. • 2. […]
(§3) • The cultures were maintained as glycerol stocks at −80° C. in cryovials, are thawed and then 100 μl spread on MEA (malt extract agar) petri dishes. • The yeast strain plates were incubated at 28° C. for 1-2 days then harvested with buffer pH 5.0. • Based on total viable count results, the inoculum was prepared. • 7. […] Reading of the results was carried out by measuring absorbance at 600 nm for each sample at the beginning of the test (tzero) and after incubation (tendpoint). tendpoint was chosen at 48 hours for bacteria and 72 hours for yeast. […]

[2] = system: Staphylococcus aureus (DSMZ#799); conditions: 48 hours, 30° C., TSB
Procedure: as §1, §2, §3

[3] = system: Candida albicans (DSMZ#1386); conditions: 72 hours, 30° C., TSB
Procedure: as §1, §2, §3

## CCCCNC(=O)OCC#CI [IPBC, 3-Iodo-2-propynyl-butylcarbamate]
[1]
  MIC, single biocide: 1400.0 ppm
[2]
  MIC, single biocide: 21.6 ppm
[3]
  MIC, single biocide: 6.6 ppm
